Test results from ChEMBL document CHEMBL2086259, “13,28-Epoxy triterpenoid saponins from Ardisia japonica selectively inhibit proliferation of liver cancer cells without affecting normal liver cells” (Bioorg Med Chem Lett, 2012).
pIC50: −log10 of the molar value.

How the values were obtained:
[1] = test system: HepG2; test: Cytotoxicity against human HepG2 cells after 72 hrs by MTT assay; format: functional, cell-based; conditions: HepG2, 72 h
[2] = test system: Bel-7402; test: Cytotoxicity against human Bel7402 cells after 72 hrs by MTT assay; format: functional, cell-based; conditions: Bel-7402, 72 h
[3] = Cytotoxicity against human HL-7702 cells after 72 hrs by MTT assay; format: cell-based; conditions: L02, 72 h

CC1(C)CC[C@]23CO[C@@]4(CC[C@@H]5[C@@]6(C)CC[C@H](O[C@@H]7OC[C@H](O[C@@H]8O[C@H](CO)[C@@H](O)[C@H](O)[C@H]8O)[C@H](O)[C@H]7O[C@@H]7O[C@H](CO)[C@@H](O)[C@H](O)[C@H]7O)C(C)(C)[C@@H]6CC[C@@]5(C)[C@]4(C)C[C@H]2O)[C@@H]3C1
pIC50 [1]: 4.84
pIC50 [2]: 5.38
pIC50 [3]: < 4.00

C[C@@H]1O[C@@H](O[C@H]2[C@H](O[C@H]3CO[C@@H](O[C@H]4CC[C@]5(C)[C@H]6CC[C@]78OC[C@@]9(CC[C@](C)(C(=O)O)C[C@H]97)C(=O)C[C@@]8(C)[C@]6(C)CC[C@H]5C4(C)C)[C@H](O[C@@H]4O[C@H](CO)[C@@H](O)[C@H](O)[C@H]4O)[C@H]3O)O[C@H](CO)[C@@H](O)[C@@H]2O)[C@H](O)[C@H](O)[C@H]1O
pIC50 [1]: < 4.00
pIC50 [2]: < 4.00
pIC50 [3]: < 4.00

COC(OC)[C@@]1(C)CC[C@]23CO[C@@]4(CC[C@@H]5[C@@]6(C)CC[C@H](O[C@@H]7OC[C@H](O[C@@H]8O[C@H](CO)[C@@H](O)[C@H](O)[C@H]8O[C@@H]8O[C@@H](C)[C@H](O)[C@@H](O)[C@H]8O)[C@H](O)[C@H]7O)C(C)(C)[C@@H]6CC[C@@]5(C)[C@]4(C)C[C@H]2O)[C@@H]3C1
pIC50 [1]: < 4.00
pIC50 [2]: < 4.00
pIC50 [3]: < 4.00

C[C@@H]1O[C@@H](O[C@H]2[C@H](O[C@H]3CO[C@@H](O[C@H]4CC[C@]5(C)[C@H]6CC=C7[C@@H]8C[C@@](C)(C(=O)O)CC[C@]8(CO)[C@H](O)C[C@@]7(C)[C@]6(C)CC[C@H]5C4(C)C)[C@H](O[C@@H]4O[C@H](CO)[C@@H](O)[C@H](O)[C@H]4O)[C@H]3O)O[C@H](CO)[C@@H](O)[C@@H]2O)[C@H](O)[C@H](O)[C@H]1O
pIC50 [1]: < 4.00
pIC50 [2]: < 4.00
pIC50 [3]: < 4.00

C[C@@H]1O[C@@H](O[C@H]2[C@H](O[C@H]3CO[C@@H](O[C@H]4CC[C@]5(C)[C@H]6CC[C@]78OC[C@@]9(CC[C@](C)(C=O)C[C@H]97)[C@H](O)C[C@@]8(C)[C@]6(C)CC[C@H]5C4(C)C)[C@H](O[C@@H]4O[C@H](CO)[C@@H](O)[C@H](O)[C@H]4O)[C@H]3O)O[C@H](CO)[C@@H](O)[C@@H]2O)[C@H](O)[C@H](O)[C@H]1O [ARDISIACRISPIN B]
pIC50 [1]: 4.68
pIC50 [2]: 5.35
pIC50 [3]: < 4.00

C[C@@H]1O[C@@H](O[C@H]2[C@H](O[C@H]3CO[C@@H](O[C@H]4CC[C@]5(C)[C@H]6CC=C7[C@@H]8C[C@@](C)(CO)CC[C@]8(CO)[C@H](O)C[C@@]7(C)[C@]6(C)CC[C@H]5C4(C)C)[C@H](O[C@@H]4O[C@H](CO)[C@@H](O)[C@H](O)[C@H]4O)[C@H]3O)O[C@H](CO)[C@@H](O)[C@@H]2O)[C@H](O)[C@H](O)[C@H]1O [ARDISIAMAMILLOSEDE C]
pIC50 [1]: < 4.00
pIC50 [2]: < 4.00
pIC50 [3]: < 4.00

C[C@@H]1O[C@@H](O[C@H]2[C@H](O[C@H]3CO[C@@H](O[C@H]4CC[C@]5(C)[C@H]6CC[C@]78OC[C@@]9(CC[C@](C)(C=O)C[C@H]97)C(=O)C[C@@]8(C)[C@]6(C)CC[C@H]5C4(C)C)[C@H](O)[C@H]3O)O[C@H](CO)[C@@H](O)[C@@H]2O)[C@H](O)[C@H](O)[C@H]1O [ARDISIAMAMILLOSIDE H]
pIC50 [1]: < 4.00
pIC50 [2]: < 4.00
pIC50 [3]: < 4.00

C[C@@H]1O[C@@H](O[C@H]2[C@H](O[C@H]3CO[C@@H](O[C@H]4CC[C@]5(C)[C@H]6CC[C@]78OC[C@@]9(CCC(C)(C)C[C@H]97)[C@H](O)C[C@@]8(C)[C@]6(C)CC[C@H]5C4(C)C)[C@H](O)[C@H]3O)O[C@H](CO)[C@@H](O)[C@@H]2O)[C@H](O)[C@H](O)[C@H]1O [ARDISIANOSIDE C]
pIC50 [1]: 4.87
pIC50 [2]: 5.38
pIC50 [3]: < 4.00
